Reference: BindingDB's records for doi:10.1016/j.bmcl.2017.08.049 (Renmin Hospital of Wuhan University, 2018)

Assay: Inhibition of HIV1 3B gp41-induced cell-cell fusion between viral protein expressing human H9 cells and MT-2 target cells assessed as number of syncytia formation treated for 2 hrs measured after 6 hrs

IC50 [µM]	Structure (SMILES)
7.14	Cc1cc2c(c(O)c1-c1c(C)cc3c(c1O)/C(=C/NC(C)C(=O)NC(C)C(=O)O)C(=O)C(O)=C3C(C)C)/C(=C/NC(C)C(=O)NC(C)C(=O)O)C(=O)C(O)=C2C(C)C (configuration not stated)
6.67	Cc1cc2c(c(O)c1-c1c(C)cc3c(c1O)/C(=C/NC(C)S(=O)(=O)O)C(=O)C(O)=C3C(C)C)/C(=C/NC(C)S(=O)(=O)O)C(=O)C(O)=C2C(C)C (configuration not stated)
